Results reported in ChEMBL document CHEMBL5316337, “Critical Role of Position 10 Residue in the Polymyxin Antimicrobial Activity” (J Med Chem, 2023).
Converted amounts (≈) assume the structure as drawn.

Tests used:
Assay type in all cases: functional
Acinetobacter baumannii [1] = experiment: Antibacterial activity against polymyxin-susceptible Acinetobacter baumannii ATCC 19606 clinical isolates assessed as reduction in bacterial growth by broth microdilution method
Klebsiella pneumoniae [2] = experiment: Antibacterial activity against polymyxin-susceptible Klebsiella pneumoniae ATCC 700721 clinical isolates assessed as reduction in bacterial growth by broth microdilution method
Acinetobacter baumannii [3] = experiment: Antibacterial activity against polymyxin-susceptible Acinetobacter baumannii ATCC 17978 clinical isolates assessed as reduction in bacterial growth by broth microdilution method
Pseudomonas aeruginosa [4] = experiment: Antibacterial activity against polymyxin-susceptible Pseudomonas aeruginosa ATCC 27853 clinical isolates assessed as reduction in bacterial growth by broth microdilution method
Pseudomonas aeruginosa [5] = experiment: Antibacterial activity against polymyxin-susceptible Pseudomonas aeruginosa FADD1-PA025 clinical isolates assessed as reduction in bacterial growth by broth microdilution method
Enterobacter cloacae [6] = experiment: Antibacterial activity against polymyxin-susceptible Enterobacter cloacae FADD1-EC006 clinical isolates assessed as reduction in bacterial growth by broth microdilution method
Pseudomonas aeruginosa [7] = experiment: Antibacterial activity against polymyxin-susceptible Pseudomonas aeruginosa FADD1-PA038 clinical isolates assessed as reduction in bacterial growth by broth microdilution method
Pseudomonas aeruginosa [8] = experiment: Antibacterial activity against Carbapenem-resistant Pseudomonas aeruginosa FADD1-PA022 clinical isolates assessed as reduction in bacterial growth by broth microdilution method
Enterobacter cloacae [9] = experiment: Antibacterial activity against polymyxin-susceptible Enterobacter cloacae FADD1-EC003 clinical isolates assessed as reduction in bacterial growth by broth microdilution method
Acinetobacter baumannii [10] = experiment: Antibacterial activity against Carbapenem-resistant Acinetobacter baumannii FADD1-AB034 clinical isolates assessed as reduction in bacterial growth by broth microdilution method
Acinetobacter baumannii [11] = experiment: Antibacterial activity against Carbapenem-resistant Acinetobacter baumannii FADD1-AB030 clinical isolates assessed as reduction in bacterial growth by broth microdilution method
Klebsiella pneumoniae [12] = experiment: Antibacterial activity against Carbapenem-resistant Klebsiella pneumoniae FADD1-KP065 clinical isolates assessed as reduction in bacterial growth by broth microdilution method
Klebsiella pneumoniae [13] = experiment: Antibacterial activity against Carbapenem-resistant Klebsiella pneumoniae FADD1-KP032 clinical isolates assessed as reduction in bacterial growth by broth microdilution method
Klebsiella pneumoniae [14] = experiment: Antibacterial activity against Carbapenem-resistant Klebsiella pneumoniae BM1 clinical isolates assessed as reduction in bacterial growth by broth microdilution method
Enterobacter cloacae [15] = experiment: Antibacterial activity against polymyxin-susceptible Enterobacter cloacae FADD1-EC001 clinical isolates assessed as reduction in bacterial growth by broth microdilution method
Klebsiella pneumoniae [16] = experiment: Antibacterial activity against Carbapenem-resistant Klebsiella pneumoniae FADD1-KP022 clinical isolates assessed as reduction in bacterial growth by broth microdilution method
Pseudomonas aeruginosa [17] = experiment: Antibacterial activity against Carbapenem-resistant Pseudomonas aeruginosa FADD1-PA001 clinical isolates assessed as reduction in bacterial growth by broth microdilution method

SMILES | MIC (Acinetobacter baumannii [1]) [µg/mL] | MIC (Klebsiella pneumoniae [2]) [µg/mL] | MIC (Acinetobacter baumannii [3]) [µg/mL] | MIC (Pseudomonas aeruginosa [4]) [µg/mL] | MIC (Pseudomonas aeruginosa [5]) [µg/mL] | MIC (Enterobacter cloacae [6]) [µg/mL] | MIC (Pseudomonas aeruginosa [7]) [µg/mL] | MIC (Pseudomonas aeruginosa [8]) [µg/mL] | MIC (Enterobacter cloacae [9]) [µg/mL] | MIC (Acinetobacter baumannii [10]) [µg/mL] | MIC (Acinetobacter baumannii [11]) [µg/mL] | MIC (Klebsiella pneumoniae [12]) [µg/mL] | MIC (Klebsiella pneumoniae [13]) [µg/mL] | MIC (Klebsiella pneumoniae [14]) [µg/mL] | MIC (Enterobacter cloacae [15]) [µg/mL] | MIC (Klebsiella pneumoniae [16]) [µg/mL] | MIC (Pseudomonas aeruginosa [17]) [µg/mL]
CC[C@H](C)CCCCC(=O)N[C@@H](CCN)C(=O)N[C@H](C(=O)N[C@@H](CCN)C(=O)N[C@H]1CCNC(=O)[C@H](Cc2c[nH]c3ccccc23)NC(=O)[C@H](CCN)NC(=O)[C@H](CCN)NC(=O)[C@H](CC(C)C)NC(=O)[C@@H](Cc2ccccc2)NC(=O)[C@H](CCN)NC1=O)[C@@H](C)O | 2 (≈ 1.55 µM) | 8 (≈ 6.21 µM) | 4 (≈ 3.1 µM) | 2 (≈ 1.55 µM) | 2 (≈ 1.55 µM) | 4 (≈ 3.1 µM) | 4 (≈ 3.1 µM) | 2 (≈ 1.55 µM) | 8 (≈ 6.21 µM) | 4 (≈ 3.1 µM) | 2 (≈ 1.55 µM) | 2 (≈ 1.55 µM) | 4 (≈ 3.1 µM) | 4 (≈ 3.1 µM) | 8 (≈ 6.21 µM) | 1 (≈ 0.776 µM) | 4 (≈ 3.1 µM)
CC[C@H](C)CCCCC(=O)N[C@@H](CCN)C(=O)N[C@H](C(=O)N[C@@H](CCN)C(=O)N[C@H]1CCNC(=O)[C@H](CCCCN)NC(=O)[C@H](CCN)NC(=O)[C@H](CCN)NC(=O)[C@H](CC(C)C)NC(=O)[C@@H](Cc2ccccc2)NC(=O)[C@H](CCN)NC1=O)[C@@H](C)O | 32 (≈ 26 µM) | > 32 | 8 (≈ 6.5 µM) | > 32 | > 32 | 32 (≈ 26 µM) | > 32 | 1 (≈ 0.813 µM) | 16 (≈ 13 µM) | 8 (≈ 6.5 µM) | 32 (≈ 26 µM) | 4 (≈ 3.25 µM) | 32 (≈ 26 µM) | > 32 | 32 (≈ 26 µM) | 2 (≈ 1.63 µM) | > 32
CC[C@H](C)CCCCC(=O)N[C@@H](CCN)C(=O)N[C@H](C(=O)N[C@@H](CCN)C(=O)N[C@H]1CCNC(=O)[C@H](CC(=O)O)NC(=O)[C@H](CCN)NC(=O)[C@H](CCN)NC(=O)[C@H](CC(C)C)NC(=O)[C@@H](Cc2ccccc2)NC(=O)[C@H](CCN)NC1=O)[C@@H](C)O | > 32 | > 32 | > 32 | > 32 | > 32 | > 32 | > 32 | 8 (≈ 6.57 µM) | > 32 | > 32 | > 32 | 16 (≈ 13.1 µM) | 32 (≈ 26.3 µM) | 32 (≈ 26.3 µM) | > 32 | 16 (≈ 13.1 µM) | > 32
CC[C@H](C)CCCCC(=O)N[C@@H](CCN)C(=O)N[C@H](C(=O)N[C@@H](CCN)C(=O)N[C@H]1CCNC(=O)[C@H](CCSC)NC(=O)[C@H](CCN)NC(=O)[C@H](CCN)NC(=O)[C@H](CC(C)C)NC(=O)[C@@H](Cc2ccccc2)NC(=O)[C@H](CCN)NC1=O)[C@@H](C)O | 4 (≈ 3.24 µM) | 4 (≈ 3.24 µM) | 4 (≈ 3.24 µM) | 1 (≈ 0.811 µM) | 2 (≈ 1.62 µM) | 16 (≈ 13 µM) | 2 (≈ 1.62 µM) | 1 (≈ 0.811 µM) | 4 (≈ 3.24 µM) | 4 (≈ 3.24 µM) | 2 (≈ 1.62 µM) | 1 (≈ 0.811 µM) | 2 (≈ 1.62 µM) | 2 (≈ 1.62 µM) | 8 (≈ 6.49 µM) | 1 (≈ 0.811 µM) | 2 (≈ 1.62 µM)
CC[C@H](C)CCCCC(=O)N[C@@H](CCN)C(=O)N[C@H](C(=O)N[C@@H](CCN)C(=O)N[C@H]1CCNC(=O)[C@H](Cc2ccc(O)cc2)NC(=O)[C@H](CCN)NC(=O)[C@H](CCN)NC(=O)[C@H](CC(C)C)NC(=O)[C@@H](Cc2ccccc2)NC(=O)[C@H](CCN)NC1=O)[C@@H](C)O | 2 (≈ 1.58 µM) | 8 (≈ 6.32 µM) | 2 (≈ 1.58 µM) | 2 (≈ 1.58 µM) | 2 (≈ 1.58 µM) | 16 (≈ 12.6 µM) | 8 (≈ 6.32 µM) | 1 (≈ 0.79 µM) | 8 (≈ 6.32 µM) | 2 (≈ 1.58 µM) | 4 (≈ 3.16 µM) | 4 (≈ 3.16 µM) | 4 (≈ 3.16 µM) | 1 (≈ 0.79 µM) | 16 (≈ 12.6 µM) | 0.5 (≈ 0.395 µM) | 4 (≈ 3.16 µM)
CC[C@H](C)CCCCC(=O)N[C@@H](CCN)C(=O)N[C@H](C(=O)N[C@@H](CCN)C(=O)N[C@H]1CCNC(=O)[C@H](CCC(=O)O)NC(=O)[C@H](CCN)NC(=O)[C@H](CCN)NC(=O)[C@H](CC(C)C)NC(=O)[C@@H](Cc2ccccc2)NC(=O)[C@H](CCN)NC1=O)[C@@H](C)O | > 32 | > 32 | > 32 | > 32 | > 32 | > 32 | > 32 | > 32 | > 32 | > 32 | > 32 | > 32 | > 32 | > 32 | > 32 | 32 (≈ 26 µM) | > 32
